# According to patent US8017611B2, “Pyridine and pyrazine derivatives -083” (AstraZeneca AB, priority 2007, dated 2011):
# Biological target: T1, c-Met (Homo sapiens, UniProt P08581)
# T1 construct: pY^1234pY^1235c-Met(1074-1366) kinase domain
# Assay: In vitro c-Met kinase assay (AlphaScreen), Test (c)
# Format: biochemical
# Details: read-out: IC50 versus c-Met tyrosine kinase
# Experimental: The assay used AlphaScreen technology (Gray et al., Analytical Biochemistry, 2003, 313: 234-245) to determine the ability of test compounds to prevent the activation of c-Met, in which wild type activated c-Met phosphorylates a mutant form of c-Met lacking catalytic activity but retaining the ability to be phosphorylated on the activating residues.
# Kinase activity assays were performed in 384-well low-volume white plates (Greiner, 784075) with a total volume of 12 μL in each well. Each kinase reaction contained 40 pg (100 pM) pY^1234pY^1235c-Met(1074-1366) kinase domain, 44 ng (100 nM) cMyc-[D1204N,R1208Q]c-Met(1069-1366)-biotin, 25 mM HEPES (pH7.4), 0.1 mM sodium orthovanadate, 1 mM DTT, 0.01% (v/v) Tween-20, 10 mM magnesium chloride, 0.1% BSA, 50 μM ATP.
# Various concentrations of test compounds were each added in 6% (v/v) DMSO to yield a final assay DMSO concentration of 1% (v/v). […] Plates were read using an Envision (Perkin Elmer) with excitation at 680 nm, emission […]. […]
# T1 sequence (P08581 1074-1366): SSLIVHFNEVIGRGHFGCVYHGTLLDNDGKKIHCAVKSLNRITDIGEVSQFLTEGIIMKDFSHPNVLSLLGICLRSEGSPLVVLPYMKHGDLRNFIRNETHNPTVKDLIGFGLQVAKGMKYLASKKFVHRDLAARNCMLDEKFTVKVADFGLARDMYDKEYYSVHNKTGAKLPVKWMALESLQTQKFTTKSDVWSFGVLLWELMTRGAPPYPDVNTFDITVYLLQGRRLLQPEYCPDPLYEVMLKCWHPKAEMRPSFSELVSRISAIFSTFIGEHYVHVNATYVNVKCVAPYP
structure (smiles),measurement,value
CN1CCC(n2cc(-c3cnc(N)c(-c4nc5ccc(F)cc5o4)c3)cn2)CC1 [Example 7.2],IC50,~1950 nM
